Reference: patent US7342122B2, “Bisphosphonate complexes” (priority 2003, dated 2008)
Entries after “also recorded” stand apart in the source; their conditions may differ. Values belong to the molecule of their own block, whether it stands above or below them.

Tests used:
[1] = In vitro assay, adsorption of Pt complexes to hydroxyapatite; format: binding; conditions: for adsorption percentage to hydroxyapatite: 100 mg of hydroxyapatite, HEPES buffer pD=7.8, 1.5 h, 37° C.; for adsorption to hydroxyapatite, comparison in words: FIGS. 1 and 2, 31P NMR, 1H NMR, AAS
Description: Each of a 5, 10, 15, 25, 35, and 100 mg sample of hydroxyapatite (Bio-Rad Macro-Prep Ceramic Hydroxyapatite, type I, 40 μm) was added to 2 ml of HEPES buffer at pD=7.8 and the resulting mixture was shaken for about 24 h at 37° C. Then, 100 μl of each complexes dissolved in HEPES buffer at pD=7.8 was added and the mixtures were shaken for 1.5 h at 37° C. All suspensions were filtered, and these solutions were measured by ^31P NMR (Varian VXR-300S) and Atomic Absorption Spectrometry (Hitachi Z-5710 AAS) of platinum or, for carboplatin, by ^1H NMR. Percentage adsorption to hydroxyapatite was calculated as follows. From NMR: Binding percentage/%=[(A−B)/A]×100 From AAS: Binding percentage/%=[(C−D)/C]×100 • A=the integration intensity of Pt(II) complex • B=the integration intensity of Pt(II) complex after reacted with hydroxyapatite • C=the concentration of Pt(II) complex • D=the concentration of Pt(II) complex after reacted with hydroxyapatite

MDA-MB-231 = test: Cell growth inhibition, breast cancer cell line MDA-MB-231; format: cell-based; conditions: MDA-MB-231, breast cancer cell line
Description: (§1) KB cells were purchased from Human Science Research Resource Bank (Osaka, Japan). The cells were cultured in Earle's MEM (GIBCO BRL) containing 10% FBS (Bio Whittaker) at 37° C. under 5% CO2. After 24 hours the test compounds were added to the cells at the indicated concentrations. 72 hours later the cells were stained with tripan blue and counted manually. IC50 is calculated as the concentration (aqueous solution) of complex required to inhibit growth of cells by 50%.
(§2) In a similar fashion a representative number of examples of compounds of the invention were tested for their ability to inhibit the growth/proliferation of cell types representing a number of different cancers. The results are provided in Tables 4-13, below, which provide the Inhibition Constants (IC50, μM) for each compound across various cell lines.

NCI-H23 = test: Cell growth inhibition, lung cancer cell line NCI-H23; format: cell-based
Description: as §1, §2

BSY-1 = test: Cell growth inhibition, breast cancer cell line BSY-1; format: cell-based; conditions: BSY-1, breast cancer cell line
Description: as §1, §2

HBC-5 = test: Cell growth inhibition, breast cancer cell line HBC-5; format: cell-based; conditions: HBC-5, breast cancer cell line
Description: as §1, §2

SF-539 = test: Cell growth inhibition, brain cancer cell line SF-539; format: cell-based; conditions: SF-539, brain cancer cell line
Description: as §1, §2

PC-3 = test: Cell growth inhibition, prostatic cancer PC-3; format: cell-based; conditions: PC-3, prostatic cancer
Description: as §1, §2

OVCAR-5 = test: Cell growth inhibition, ovarian cancer cell line OVCAR-5; format: cell-based; conditions: OVCAR-5, ovarian cancer cell line
Description: as §1, §2

KB cells = test: In vitro assay, cell growth inhibition (KB cells); format: cell-based; conditions: 72 hours
Description: as §1

DU-145 = test: Cell growth inhibition, prostatic cancer DU-145; format: cell-based, human; conditions: DU-145, prostatic cancer
Description: as §1, §2

HBC-4 = test: Cell growth inhibition, breast cancer cell line HBC-4; format: cell-based; conditions: HBC-4, breast cancer cell line
Description: as §1, §2

OVCAR-3 = test: Cell growth inhibition, ovarian cancer cell line OVCAR-3; format: cell-based; conditions: OVCAR-3, ovarian cancer cell line
Description: as §1, §2

MCF-7 = test: Cell growth inhibition, breast cancer cell line MCF-7; format: cell-based; conditions: MCF-7, breast cancer cell line
Description: as §1, §2

SK-OV-3 = test: Cell growth inhibition, ovarian cancer cell line SK-OV-3; format: cell-based; conditions: SK-OV-3, ovarian cancer cell line
Description: as §1, §2

KM-12 = test: Cell growth inhibition, colon cancer cell line KM-12; format: cell-based; conditions: KM-12, colon cancer cell line
Description: as §1, §2

DMS273 = test: Cell growth inhibition, lung cancer cell line DMS273; format: cell-based
Description: as §1, §2

SF-295 = test: Cell growth inhibition, brain cancer cell line SF-295; format: cell-based; conditions: SF-295, brain cancer cell line
Description: as §1, §2

MKN28 = test: Cell growth inhibition, human stomach cancer MKN28; format: cell-based
Description: as §1, §2

NCI-H460 = test: Cell growth inhibition, lung cancer cell line NCI-H460; format: cell-based
Description: as §1, §2

St-4 = test: Cell growth inhibition, human stomach cancer St-4; format: cell-based; conditions: St-4, human stomach cancer
Description: as §1, §2

MKN45 = test: Cell growth inhibition, human stomach cancer MKN45; format: cell-based
Description: as §1, §2

SNB-75 = test: Cell growth inhibition, brain cancer cell line SNB-75; format: cell-based; conditions: SNB-75, brain cancer cell line
Description: as §1, §2

LOX-IMVI = test: Cell growth inhibition, melanoma cell line LOX-IMVI; format: cell-based
Description: as §1, §2

A549 = test: Cell growth inhibition, lung cancer cell line A549; format: cell-based
Description: as §1, §2

HCC2998 = test: Cell growth inhibition, colon cancer cell line HCC2998; format: cell-based
Description: as §1, §2

NCI-H226 = test: Cell growth inhibition, lung cancer cell line NCI-H226; format: cell-based
Description: as §1, §2

[2] = test system: all cell types (cancer cell lines of Tables 4-12); test: Cell growth inhibition, mean over all cell types of the panel; format: cell-based; conditions: mean over all cell lines of Tables 4-12
Description: as §1, §2

SNB-78 = test: Cell growth inhibition, brain cancer cell line SNB-78; format: cell-based; conditions: SNB-78, brain cancer cell line
Description: as §1, §2

HT-29 = test: Cell growth inhibition, colon cancer cell line HT-29; format: cell-based; conditions: HT-29, colon cancer cell line
Description: as §1, §2

U251 = test: Cell growth inhibition, brain cancer cell line U251; format: cell-based
Description: as §1, §2

RXF-631L = test: Cell growth inhibition, renal cancer RXF-631L; format: cell-based
Description: as §1, §2

ACHN = test: Cell growth inhibition, renal cancer ACHN; format: cell-based
Description: as §1, §2

MKN74 = test: Cell growth inhibition, human stomach cancer MKN74; format: cell-based
Description: as §1, §2

HCT-116 = test: Cell growth inhibition, colon cancer cell line HCT-116; format: cell-based; conditions: HCT-116, colon cancer cell line
Description: as §1, §2

OVCAR-8 = test: Cell growth inhibition, ovarian cancer cell line OVCAR-8; format: cell-based; conditions: OVCAR-8, ovarian cancer cell line
Description: as §1, §2

SF-268 = test: Cell growth inhibition, brain cancer cell line SF-268; format: cell-based; conditions: SF-268, brain cancer cell line
Description: as §1, §2

MKN7 = test: Cell growth inhibition, human stomach cancer MKN7; format: cell-based
Description: as §1, §2

OVCAR-4 = test: Cell growth inhibition, ovarian cancer cell line OVCAR-4; format: cell-based; conditions: OVCAR-4, ovarian cancer cell line
Description: as §1, §2

DMS114 = test: Cell growth inhibition, lung cancer cell line DMS114; format: cell-based
Description: as §1, §2

Compound: [NH2][Pt]1([NH2])[O]P(=O)(O)CP(=O)(O)[O]1 [Example 1, cis-Pt(NH3)2(MDP)]
- adsorption percentage to hydroxyapatite [1]: 69.3%
- adsorption to hydroxyapatite, comparison in words [1]: adsorbed quite significantly more than carboplatin

Compound: O=P1(O)CP(=O)(O)[O][Pt]2([NH][C@@H]3CCCC[C@H]3[NH]2)[O]1 (some centres unmarked) [Example 2, Pt(dach)(MDP)]
- adsorption percentage to hydroxyapatite [1]: 79.6%
- adsorption to hydroxyapatite, comparison in words [1]: adsorbed slightly more than cis-Pt(NH3)2(MDP); also recorded: adsorbed quite significantly more than carboplatin

- log10 IC50 (M) (MDA-MB-231): -4.5
- log10 IC50 (M) (NCI-H23): -4.18
- log10 IC50 (M) (BSY-1): -4.89
- log10 IC50 (M) (HBC-5): -4.12
- log10 IC50 (M) (SF-539): -4.82
- log10 IC50 (M) (PC-3): -4.22
- log10 IC50 (M) (OVCAR-5): -4.79
- IC50 (KB cells; concentration to inhibit growth of cells by 50%): 97 µM
- log10 IC50 (M) (DU-145): -4.33
- log10 IC50 (M) (HBC-4): -4.14
- log10 IC50 (M) (OVCAR-3): -4.13
- log10 IC50 (M) (MCF-7): -4.23
- log10 IC50 (M) (SK-OV-3): -4.77
- log10 IC50 (M) (KM-12): -4.77
- log10 IC50 (M) (DMS273): -4.85
- log10 IC50 (M) (SF-295): -4.9
- log10 IC50 (M) (MKN28): -4.34
- log10 IC50 (M) (NCI-H460): -5.23
- log10 IC50 (M) (St-4): -4.74
- log10 IC50 (M) (MKN45): -4.68
- log10 IC50 (M) (SNB-75): -4.77
- log10 IC50 (M) (LOX-IMVI): -4.46
- log10 IC50 (M) (A549): -4.69
- log10 IC50 (M) (HCC2998): -4.81
- log10 IC50 (M) (NCI-H226): -4.83
- log10 IC50 (M) [2]: -4.54
- log10 IC50 (M) (SNB-78): -4.56
- log10 IC50 (M) (HT-29): -4.57
- log10 IC50 (M) (U251): -4.84
- log10 IC50 (M) (RXF-631L): -4.89
- log10 IC50 (M) (ACHN): -4.2
- log10 IC50 (M) (MKN74): -4.75
- log10 IC50 (M) (HCT-116): -4.37
- log10 IC50 (M) (OVCAR-8): -4.37
- log10 IC50 (M) (SF-268): -4.83
- log10 IC50 (M) (MKN7): -4.45
- log10 IC50 (M) (OVCAR-4): -4.19
- log10 IC50 (M) (DMS114): -4.89
Compound: [Cl-].[Cl-].c1cc[n+]2c(c1)-c1cccc[n+]1[Pt-2]21[NH2+]CC[NH+]1Cc1c2ccccc2cc2ccccc12 [Example 4, [Pt(bpy)(Aten)]Cl2]
- KB cells remaining/growth in percent (Table 2, untitled) (KB cells; 1 μg/ml): 93.8%
- KB cells remaining/growth in percent (Table 2, untitled) (KB cells; 3 μg/mL): 81.4%
- KB cells remaining/growth in percent (Table 2, untitled) (KB cells; 10 μg/mL): 75.3%
- KB cells remaining/growth in percent (Table 2, untitled) (KB cells; 30 μg/mL): 73.2%
- KB cells remaining/growth in percent (Table 2, untitled) (KB cells; 100 μg/mL): 32.5%
